Consider three compounds from ChEMBL document CHEMBL4680157, “Design, synthesis and biological evaluation of novel TRβ selective agonists sustained by ADME-toxicity analysis” (Eur J Med Chem, 2020).

Usually inhibition stands for how much of the control response was suppressed.

Data set [1] is described as follows: Cytotoxicity against human MCF7 cells assessed as cell growth inhibition at 10 uM after 24 hrs relative to control. It counts as cell-based.
The nature of data set [2]: Cytotoxicity against human HEK293 cells assessed as cell growth inhibition at 10 uM after 24 hrs relative to control. It counts as cell-based.
Data set [3] has as its target HDAC4 (Homo sapiens, UniProt P56524). Kind of data set: Inhibition of HDAC4 (unknown origin) at 10 uM relative to control.
Data set [4] has as its target CYP3A4 (Homo sapiens, UniProt P08684). Kind of data set: Inhibition of CYP3A4 (unknown origin) at 10 uM relative to control. The class given is ADME.
Data set [5] can be described thus: Cytotoxicity against human hTERT cells assessed as cell growth inhibition at 10 uM after 24 hrs relative to control. The class given is cell-based, hTERT-BJ.
Data set [6] is described as follows: Cytotoxicity against human MCF7 cells assessed as cell growth inhibition at 10 uM after 48 hrs relative to control. It counts as cell-based.
The target of data set [7] is HDAC9 (Homo sapiens, UniProt Q9UKV0). Kind of data set: Inhibition of HDAC9 (unknown origin) at 10 uM relative to control.
Sequence of HDAC9 (Q9UKV0 whole entry): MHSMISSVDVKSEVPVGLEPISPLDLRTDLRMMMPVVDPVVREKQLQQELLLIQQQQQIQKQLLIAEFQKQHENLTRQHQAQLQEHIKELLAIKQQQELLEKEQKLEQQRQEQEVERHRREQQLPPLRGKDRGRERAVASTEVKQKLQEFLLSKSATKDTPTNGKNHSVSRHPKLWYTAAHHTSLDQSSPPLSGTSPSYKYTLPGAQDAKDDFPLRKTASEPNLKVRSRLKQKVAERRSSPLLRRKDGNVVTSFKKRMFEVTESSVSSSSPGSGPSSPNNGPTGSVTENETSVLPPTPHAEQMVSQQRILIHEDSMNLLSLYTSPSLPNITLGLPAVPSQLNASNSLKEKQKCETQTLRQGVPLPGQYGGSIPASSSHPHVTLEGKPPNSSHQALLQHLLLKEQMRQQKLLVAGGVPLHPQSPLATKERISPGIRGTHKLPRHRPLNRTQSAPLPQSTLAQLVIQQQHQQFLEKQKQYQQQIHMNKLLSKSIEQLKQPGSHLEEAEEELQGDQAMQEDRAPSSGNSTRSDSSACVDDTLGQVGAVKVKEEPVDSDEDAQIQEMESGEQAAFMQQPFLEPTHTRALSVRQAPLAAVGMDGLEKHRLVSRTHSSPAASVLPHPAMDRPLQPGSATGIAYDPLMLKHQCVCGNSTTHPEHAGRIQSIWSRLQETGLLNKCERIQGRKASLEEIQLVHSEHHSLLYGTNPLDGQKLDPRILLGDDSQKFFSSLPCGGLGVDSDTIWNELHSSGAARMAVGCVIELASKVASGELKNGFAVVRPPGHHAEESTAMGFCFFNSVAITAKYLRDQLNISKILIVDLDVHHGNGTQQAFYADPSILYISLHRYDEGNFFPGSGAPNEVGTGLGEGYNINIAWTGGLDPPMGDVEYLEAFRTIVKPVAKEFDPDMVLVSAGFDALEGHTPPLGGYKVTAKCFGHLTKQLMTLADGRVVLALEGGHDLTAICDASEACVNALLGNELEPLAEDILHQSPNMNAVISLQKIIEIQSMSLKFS
Data set [8] concerns the target T1, HDAC6 (Homo sapiens, UniProt Q9UBN7).
T1 sequence (Q9UBN7 whole entry): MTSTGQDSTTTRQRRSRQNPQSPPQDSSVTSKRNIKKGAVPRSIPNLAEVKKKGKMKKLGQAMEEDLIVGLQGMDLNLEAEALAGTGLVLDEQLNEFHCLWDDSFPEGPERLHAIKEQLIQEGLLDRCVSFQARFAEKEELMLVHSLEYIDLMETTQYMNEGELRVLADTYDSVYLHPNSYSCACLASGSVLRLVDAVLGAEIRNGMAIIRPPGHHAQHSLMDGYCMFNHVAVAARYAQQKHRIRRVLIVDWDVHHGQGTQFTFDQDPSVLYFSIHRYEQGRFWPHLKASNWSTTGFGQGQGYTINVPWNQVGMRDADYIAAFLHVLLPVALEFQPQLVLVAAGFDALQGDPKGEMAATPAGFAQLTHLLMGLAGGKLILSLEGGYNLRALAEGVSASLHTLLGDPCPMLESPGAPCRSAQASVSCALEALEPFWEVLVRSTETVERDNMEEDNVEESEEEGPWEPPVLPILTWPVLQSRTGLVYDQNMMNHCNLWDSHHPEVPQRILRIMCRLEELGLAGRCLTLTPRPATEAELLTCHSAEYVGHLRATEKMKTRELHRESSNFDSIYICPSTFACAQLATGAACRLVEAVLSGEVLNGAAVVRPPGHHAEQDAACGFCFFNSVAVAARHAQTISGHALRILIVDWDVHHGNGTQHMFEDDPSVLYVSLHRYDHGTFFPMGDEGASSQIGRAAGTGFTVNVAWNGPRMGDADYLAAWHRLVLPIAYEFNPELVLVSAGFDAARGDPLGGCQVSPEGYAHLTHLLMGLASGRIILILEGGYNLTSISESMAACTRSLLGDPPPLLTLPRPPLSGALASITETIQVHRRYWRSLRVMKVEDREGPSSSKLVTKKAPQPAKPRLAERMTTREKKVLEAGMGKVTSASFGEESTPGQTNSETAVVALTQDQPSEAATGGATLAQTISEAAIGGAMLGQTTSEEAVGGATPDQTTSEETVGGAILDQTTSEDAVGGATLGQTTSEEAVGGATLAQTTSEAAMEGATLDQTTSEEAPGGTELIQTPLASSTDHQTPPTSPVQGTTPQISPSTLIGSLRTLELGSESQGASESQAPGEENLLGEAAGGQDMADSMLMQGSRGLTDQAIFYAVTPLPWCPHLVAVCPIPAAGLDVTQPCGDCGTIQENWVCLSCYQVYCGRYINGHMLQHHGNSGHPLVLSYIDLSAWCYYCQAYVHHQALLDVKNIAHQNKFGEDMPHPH
Description: Inhibition of HDAC6 (unknown origin) at 10 uM relative to control.

The nature of data set [9]: Cytotoxicity against human U2OS cells assessed as cell growth inhibition at 10 uM after 48 hrs relative to control. It counts as cell-based.
The nature of data set [10]: Cytotoxicity against human HEK293 cells assessed as cell growth inhibition at 10 uM after 48 hrs relative to control. It counts as cell-based.
For data set [11], the target named is CYP2D6 (Homo sapiens, UniProt P10635). Description: Inhibition of CYP2D6 (unknown origin) at 10 uM relative to control. The class given is ADME.
Sequence of CYP2D6 (P10635 whole entry): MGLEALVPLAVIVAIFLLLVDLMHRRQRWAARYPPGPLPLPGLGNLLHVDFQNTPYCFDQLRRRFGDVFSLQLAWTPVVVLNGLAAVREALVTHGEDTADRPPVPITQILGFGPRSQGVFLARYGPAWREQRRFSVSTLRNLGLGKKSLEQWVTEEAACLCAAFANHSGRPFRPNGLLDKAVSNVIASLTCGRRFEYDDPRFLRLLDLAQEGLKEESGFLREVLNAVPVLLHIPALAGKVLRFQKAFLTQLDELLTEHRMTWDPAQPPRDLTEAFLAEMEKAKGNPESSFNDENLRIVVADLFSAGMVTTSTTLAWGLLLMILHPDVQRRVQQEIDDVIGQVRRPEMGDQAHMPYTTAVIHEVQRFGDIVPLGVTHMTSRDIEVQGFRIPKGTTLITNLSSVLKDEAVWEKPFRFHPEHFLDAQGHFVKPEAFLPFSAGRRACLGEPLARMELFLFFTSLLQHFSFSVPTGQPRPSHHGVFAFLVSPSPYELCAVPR
Data set [12] deals with CYP2C19 (Homo sapiens, UniProt P33261). Kind of data set: Inhibition of CYP2C19 (unknown origin) at 10 uM relative to control. It counts as ADME.
Data set [13] is described as follows: Cytotoxicity against human U2OS cells assessed as cell growth inhibition at 10 uM after 24 hrs relative to control. The class given is cell-based.
Data set [14] has as its target T2, HDAC8 (Homo sapiens, UniProt Q9BY41).
T2 sequence (Q9BY41 whole entry): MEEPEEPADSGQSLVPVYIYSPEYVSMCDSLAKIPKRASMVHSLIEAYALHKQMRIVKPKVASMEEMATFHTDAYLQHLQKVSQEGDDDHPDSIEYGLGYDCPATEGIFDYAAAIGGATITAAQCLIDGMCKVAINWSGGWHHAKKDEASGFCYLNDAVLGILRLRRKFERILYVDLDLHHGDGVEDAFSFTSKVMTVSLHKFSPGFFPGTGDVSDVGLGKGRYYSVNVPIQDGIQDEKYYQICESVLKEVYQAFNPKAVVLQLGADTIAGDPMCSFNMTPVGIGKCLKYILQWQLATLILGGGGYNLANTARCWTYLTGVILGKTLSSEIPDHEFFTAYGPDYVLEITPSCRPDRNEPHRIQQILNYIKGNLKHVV
Kind of data set: Inhibition of HDAC8 (unknown origin) at 10 uM relative to control.

Data set [15] addresses 3',5'-cyclic-AMP phosphodiesterase 4C (Homo sapiens) (UniProt Q08493). Kind of data set: Inhibition of PDE4C1 (unknown origin) at 10 uM relative to control.
For data set [16], the target named is CYP2C9 (Homo sapiens, UniProt P11712). Kind of data set: Inhibition of CYP2C9 (unknown origin) at 10 uM relative to control. The class given is ADME.
Sequence of CYP2C9 (P11712 whole entry): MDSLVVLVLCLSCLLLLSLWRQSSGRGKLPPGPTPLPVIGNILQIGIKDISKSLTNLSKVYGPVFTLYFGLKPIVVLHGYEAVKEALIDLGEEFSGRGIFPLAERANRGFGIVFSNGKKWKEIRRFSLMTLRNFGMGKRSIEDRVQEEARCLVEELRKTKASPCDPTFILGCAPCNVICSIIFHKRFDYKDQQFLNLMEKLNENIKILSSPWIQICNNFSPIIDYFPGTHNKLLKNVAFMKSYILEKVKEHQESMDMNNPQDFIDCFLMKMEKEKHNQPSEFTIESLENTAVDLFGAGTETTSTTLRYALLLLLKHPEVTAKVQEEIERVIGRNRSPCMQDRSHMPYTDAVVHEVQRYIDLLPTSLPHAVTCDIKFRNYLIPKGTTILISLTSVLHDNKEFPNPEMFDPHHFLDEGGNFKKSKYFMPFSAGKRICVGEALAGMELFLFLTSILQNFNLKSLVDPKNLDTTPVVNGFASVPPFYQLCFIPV
Data set [17] can be described thus: Cytotoxicity against human hTERT cells assessed as cell growth inhibition at 10 uM after 48 hrs relative to control. It counts as cell-based, hTERT-BJ.
Data set [18] addresses hERG (KCNH2) (Homo sapiens, UniProt Q12809). Kind of data set: Inhibition of human ERG at 10 uM by fluorescence polarization assay relative to control. Background: Fluorescence polarisation rises when a labelled molecule tumbles more slowly, as on binding a larger partner.
The target in data set [19] is Aurora B (Homo sapiens, UniProt Q96GD4). Description: Inhibition of Aurora B (unknown origin) at 10 uM relative to control.

The structures appear in SMILES notation.

Sequence of 3',5'-cyclic-AMP phosphodiesterase 4C (Homo sapiens) (Q08493 whole entry): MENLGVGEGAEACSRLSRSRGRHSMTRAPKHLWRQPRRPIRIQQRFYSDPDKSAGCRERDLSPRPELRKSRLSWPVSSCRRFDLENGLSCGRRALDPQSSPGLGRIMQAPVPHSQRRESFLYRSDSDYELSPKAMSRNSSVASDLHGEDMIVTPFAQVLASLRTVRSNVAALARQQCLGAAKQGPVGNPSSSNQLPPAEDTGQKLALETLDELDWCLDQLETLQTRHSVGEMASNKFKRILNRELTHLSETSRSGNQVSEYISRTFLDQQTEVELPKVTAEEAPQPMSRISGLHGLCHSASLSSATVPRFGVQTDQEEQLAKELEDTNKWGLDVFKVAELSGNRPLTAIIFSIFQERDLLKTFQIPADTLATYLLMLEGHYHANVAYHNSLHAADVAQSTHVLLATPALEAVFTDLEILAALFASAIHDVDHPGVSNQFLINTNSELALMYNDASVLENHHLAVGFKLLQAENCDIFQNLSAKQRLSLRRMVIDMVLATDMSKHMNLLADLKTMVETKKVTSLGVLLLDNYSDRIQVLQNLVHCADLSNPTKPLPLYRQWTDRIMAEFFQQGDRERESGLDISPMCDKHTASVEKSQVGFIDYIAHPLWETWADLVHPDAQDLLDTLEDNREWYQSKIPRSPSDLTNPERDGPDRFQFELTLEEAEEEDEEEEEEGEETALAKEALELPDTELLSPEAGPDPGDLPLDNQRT
Sequence of HDAC4 (P56524 whole entry): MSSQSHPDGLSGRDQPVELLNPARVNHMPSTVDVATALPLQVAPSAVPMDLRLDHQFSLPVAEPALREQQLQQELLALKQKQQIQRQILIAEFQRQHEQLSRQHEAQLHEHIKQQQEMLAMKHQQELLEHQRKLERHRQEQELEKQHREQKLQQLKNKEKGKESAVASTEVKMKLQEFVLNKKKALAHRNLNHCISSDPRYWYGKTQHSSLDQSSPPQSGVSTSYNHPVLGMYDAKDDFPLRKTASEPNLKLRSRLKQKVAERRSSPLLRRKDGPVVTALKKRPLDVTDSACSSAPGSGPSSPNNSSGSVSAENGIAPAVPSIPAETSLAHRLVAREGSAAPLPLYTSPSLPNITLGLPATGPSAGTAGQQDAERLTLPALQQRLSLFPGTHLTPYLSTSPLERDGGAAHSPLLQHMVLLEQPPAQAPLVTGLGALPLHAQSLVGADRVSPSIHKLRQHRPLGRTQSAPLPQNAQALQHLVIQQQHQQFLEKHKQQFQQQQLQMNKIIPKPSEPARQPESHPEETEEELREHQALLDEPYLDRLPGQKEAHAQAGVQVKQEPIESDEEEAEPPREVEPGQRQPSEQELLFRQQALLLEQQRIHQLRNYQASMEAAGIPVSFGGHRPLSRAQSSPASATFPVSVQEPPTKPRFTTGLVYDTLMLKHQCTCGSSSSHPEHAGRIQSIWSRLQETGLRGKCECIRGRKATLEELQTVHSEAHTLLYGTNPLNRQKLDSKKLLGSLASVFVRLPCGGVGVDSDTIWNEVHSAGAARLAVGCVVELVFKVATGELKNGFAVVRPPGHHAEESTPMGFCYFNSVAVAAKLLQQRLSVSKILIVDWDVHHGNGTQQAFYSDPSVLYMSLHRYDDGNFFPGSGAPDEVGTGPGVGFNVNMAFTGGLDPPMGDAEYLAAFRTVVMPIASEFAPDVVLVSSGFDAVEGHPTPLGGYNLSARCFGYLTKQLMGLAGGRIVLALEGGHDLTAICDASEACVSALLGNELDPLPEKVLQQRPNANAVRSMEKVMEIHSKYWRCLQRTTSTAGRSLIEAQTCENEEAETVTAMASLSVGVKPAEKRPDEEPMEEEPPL
Sequence of hERG (KCNH2) (Q12809 whole entry): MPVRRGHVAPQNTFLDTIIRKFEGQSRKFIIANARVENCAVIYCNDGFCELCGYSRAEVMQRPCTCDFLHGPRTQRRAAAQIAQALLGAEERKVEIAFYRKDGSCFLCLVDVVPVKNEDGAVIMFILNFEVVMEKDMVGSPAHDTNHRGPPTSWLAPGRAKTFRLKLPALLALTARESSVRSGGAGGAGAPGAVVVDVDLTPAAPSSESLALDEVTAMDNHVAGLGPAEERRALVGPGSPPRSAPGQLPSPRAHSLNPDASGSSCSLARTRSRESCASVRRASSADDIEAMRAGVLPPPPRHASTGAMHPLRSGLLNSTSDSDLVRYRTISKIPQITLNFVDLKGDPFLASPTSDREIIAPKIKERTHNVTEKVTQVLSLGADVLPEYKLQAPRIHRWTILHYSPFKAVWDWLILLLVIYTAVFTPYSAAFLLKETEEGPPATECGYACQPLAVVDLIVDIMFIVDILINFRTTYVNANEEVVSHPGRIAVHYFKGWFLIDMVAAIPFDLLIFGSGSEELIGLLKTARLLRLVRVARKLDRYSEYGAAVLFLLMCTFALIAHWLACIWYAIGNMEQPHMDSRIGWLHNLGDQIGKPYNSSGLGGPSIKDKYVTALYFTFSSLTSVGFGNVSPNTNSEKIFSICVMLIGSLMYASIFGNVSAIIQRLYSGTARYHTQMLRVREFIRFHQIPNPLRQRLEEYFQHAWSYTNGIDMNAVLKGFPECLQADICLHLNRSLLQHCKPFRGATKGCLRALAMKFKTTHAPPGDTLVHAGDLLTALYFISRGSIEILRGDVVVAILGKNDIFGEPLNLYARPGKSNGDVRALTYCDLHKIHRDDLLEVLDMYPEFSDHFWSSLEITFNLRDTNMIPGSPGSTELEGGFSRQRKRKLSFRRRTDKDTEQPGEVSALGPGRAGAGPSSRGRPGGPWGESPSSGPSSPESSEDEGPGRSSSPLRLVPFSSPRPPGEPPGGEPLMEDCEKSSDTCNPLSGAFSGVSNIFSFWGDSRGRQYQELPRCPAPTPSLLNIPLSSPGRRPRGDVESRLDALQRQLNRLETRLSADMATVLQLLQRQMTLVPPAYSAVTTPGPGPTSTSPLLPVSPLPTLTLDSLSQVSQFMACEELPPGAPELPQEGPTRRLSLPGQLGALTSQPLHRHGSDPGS

Regarding `Cc1cc(OCC(=O)O)cc(C)c1Cc1ccc(N)c(C(C)C)c1`, the inhibition at 24 h, 10 µM in [1], in [2], in data set [5] and in data set [13] was under 50% throughout. In addition, the inhibition at 10 µM in data set [3] is under 50%; in [4] it was 51%; in data set [7], under 50%; in data set [8] it was under 50%; in data set [11], under 50%; in data set [12], under 50%. Also, the inhibition at 10 µM in [14] is under 50%; in data set [16], under 50%; in data set [18], under 40%; in [19], under 50%. Also, the inhibition at 48 h, 10 µM in data set [6], in [9], in data set [10] and in [17] was under 50% in each case. For the same compound, in [15], the inhibition was under 50%.
With `CC(=O)Nc1ccc(Cc2c(C)cc(OCC(=O)O)cc2C)cc1C(C)C`, the inhibition at 24 h, 10 µM in data set [1], in data set [2], in [5] and in [13] was under 50% each time. In addition, the inhibition at 10 µM in [3], in data set [4], in data set [7], in data set [8], in data set [11] and in [12] was under 50% in each case. Further, the inhibition at 10 µM in [14] was under 50%; in [16] it was under 50%; in data set [18], under 25%; in [19] it was under 50%. Moreover, the inhibition at 48 h, 10 µM in [6], in data set [9], in data set [10] and in [17] was under 50% in each case. The same compound showed an inhibition in data set [15] of under 50%.
Turning to `Cc1cc(OCC(=O)O)cc(C)c1Cc1ccc(O)cc1`, the inhibition at 24 h, 10 µM in [1], in [2], in data set [5] and in data set [13] was under 50% throughout. For the same compound, the inhibition at 10 µM in data set [3], in data set [4], in [7], in data set [8], in data set [11] and in data set [12] was under 50% each time. Moreover, the inhibition at 10 µM in data set [14] was under 50%; in data set [16], under 50%; in data set [18], under 25%; in [19] it was under 50%. Further, the inhibition at 48 h, 10 µM in data set [6], in data set [9], in [10] and in data set [17] was under 50% in each case. Besides, the inhibition in data set [15] is under 50%.
